# Source: US7709636B2, “Pyrazole sulfonylurea compound and herbicide” (Nissan Chemical Industries, Ltd., priority 2004, dated 2010)
# Key:
# [1] = system: Echinochloa crus-galli; assay: Herbicidal effect test by foliage treatment; assay type: in vivo; settings: 1.6 g/a; foliage treatment after growth of 14 days; 3 weeks after treatment
# Outline: (§1)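 Herbicidal effect was rated 3 weeks after a uniform foliar spray of wettable powder diluted in water to a predetermined formulation amount. Plants had been grown 14 days from seed in sterilized diluvial soil in a greenhouse at 25 to 30° C.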
# [2] = system: Monochoria vaginalis; assay: Herbicidal effect test in submerged condition by treatment during weed-growth stage (1); assay type: in vivo; settings: 0.64 g/a, treated at 1st to 2nd leaf stage, 3 weeks after treatment
# Outline: (§2)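 Paddy-soil pots flooded to 4 cm water depth were sown and grown in a greenhouse at 25 to 30° C until weeds reached 1st to 2nd leaf stage. A wettable powder diluted in water to a predetermined formulation amount was applied to the water surface. Herbicidal effect was scored 3 weeks after treatment against set criteria.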
# [3] = system: Echinochloa crus-galli; assay: as above; assay type: in vivo; settings: 0.64 g/a, treated at 1st to 2nd leaf stage, 3 weeks after treatment
# Outline: as §2
# [4] = system: Scirpus juncoides; assay: as above; assay type: in vivo; settings: 0.64 g/a, treated at 1st to 2nd leaf stage, 3 weeks after treatment
# Outline: as §2
# [5] = system: rice transplanted at a depth of 0 cm; assay: Herbicidal effect test in submerged condition by treatment before weed-generation (2); assay type: in vivo, Oryza sativa; settings: 0.3 g/a; submerged paddy soil pot, seedlings fixed to paddy surface with roots exposed; 3 weeks after treatment
# Procedure: (§3) Herbicidal Effect Test in Submerged Condition by Treatment Before Weed-Generation (2)
# (§4) Paddy surface soil was placed in a plastic pot of 1/10000 are, water was poured therein and mixed. After seeds of Scirpus juncoides were sown, paddy surface soil was added by 2 cm, and submerged with water, and then seeds of Echinochloa crus-galli, Scirpus juncoides, Monochoria vaginalis, Rotala indica and Lindernia pyxidaria were sown together. In addition, rice seedlings at 2.5th leaf stage were transplanted, and fixed to the paddy surface in a state where the roots were exposed on the other side. On the day when the seeds were sown, the wettable powder of the present invention prepared according to Formulation Example 1 was diluted with water so as to give a predetermined formulation amount, and the surface of the water was treated with the diluted wettable powder. The plants were grown by putting the pot in a green house at 25 to 30° C. The herbicidal effect for each plant was investigated 3 weeks after treatment with the herbicide according to the criteria indicated in Test Example 1.
# [6] = system: direct sown rice; assay: Herbicidal effect test by soil treatment; assay type: in vivo, Oryza sativa; settings: 1.6 g/a, 3 weeks after treatment
# Outline: (§5)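 Read-out is a visual herbicidal-effect rating taken 3 weeks post-treatment. Plants grew from seed sown in sterilized diluvial soil, covered with about 1.5 cm soil, then surface-sprayed with water-diluted wettable powder at a predetermined formulation amount.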
# [7] = system: Monochoria vaginalis; assay: Herbicidal effect test in submerged condition by treatment before weed-generation (2); assay type: in vivo; settings: 0.3 g/a; submerged paddy soil pot, water surface treated on day of sowing; 3 weeks after treatment
# Procedure: as §3, §4
# [8] = system: Echinochloa crus-galli; assay: as above; assay type: in vivo; settings: 0.3 g/a; submerged paddy soil pot, water surface treated on day of sowing; 3 weeks after treatment
# Procedure: as §3, §4
# [9] = system: transplanted rice (Oryza sativa); assay: as above; assay type: in vivo; settings: 0.3 g/a; submerged paddy soil pot, rice seedlings at 2.5th leaf stage transplanted; 3 weeks after treatment
# Procedure: as §3, §4
# [10] = system: Scirpus juncoides; assay: as above; assay type: in vivo; settings: 0.3 g/a; submerged paddy soil pot, water surface treated on day of sowing; 3 weeks after treatment
# Procedure: as §3, §4
# [11] = system: Rotala indica; assay: as above; assay type: in vivo; settings: 0.3 g/a; submerged paddy soil pot, water surface treated on day of sowing; 3 weeks after treatment
# Procedure: as §3, §4
# [12] = system: Lindernia pyxidaria; assay: as above; assay type: in vivo; settings: 0.3 g/a; submerged paddy soil pot, water surface treated on day of sowing; 3 weeks after treatment
# Procedure: as §3, §4
# [13] = system: Echinochloa crus-galli; assay: Herbicidal effect test by soil treatment; assay type: in vivo; settings: 1.6 g/a, 3 weeks after treatment
# Outline: as §5
# [14] = system: Triticum aestivum (wheat); assay: Herbicidal effect test by soil treatment; assay type: in vivo; settings: 1.6 g/a, 3 weeks after treatment
# Outline: as §5
# [15] = system: Amaranthus retroflexus; assay: Herbicidal effect test by soil treatment; assay type: in vivo; settings: 1.6 g/a, 3 weeks after treatment
# Outline: as §5
# [16] = system: Digitaria adscendes; assay: Herbicidal effect test by soil treatment; assay type: in vivo; settings: 1.6 g/a, 3 weeks after treatment
# Outline: as §5
# [17] = system: Chenopodium album; assay: Herbicidal effect test by soil treatment; assay type: in vivo; settings: 1.6 g/a, 3 weeks after treatment
# Outline: as §5
# [18] = system: soybean (Glycine max); assay: Herbicidal effect test by soil treatment; assay type: in vivo; settings: 1.6 g/a, 3 weeks after treatment
# Outline: as §5
# [19] = system: Beta vulgaris (beet); assay: Herbicidal effect test by soil treatment; assay type: in vivo; settings: 1.6 g/a, 3 weeks after treatment
# Outline: as §5
# [20] = system: Ambrosia elatior; assay: Herbicidal effect test by soil treatment; assay type: in vivo; settings: 1.6 g/a, 3 weeks after treatment
# Outline: as §5
# [21] = system: Abutilon avicennae; assay: Herbicidal effect test by soil treatment; assay type: in vivo; settings: 1.6 g/a, 3 weeks after treatment
# Outline: as §5
# [22] = system: Black-grass; assay: Herbicidal effect test by soil treatment; assay type: in vivo; settings: 1.6 g/a, 3 weeks after treatment
# Outline: as §5
# [23] = system: corn (Zea mays); assay: Herbicidal effect test by soil treatment; assay type: in vivo; settings: 1.6 g/a, 3 weeks after treatment
# Outline: as §5
# [24] = system: Stellaria media; assay: Herbicidal effect test by soil treatment; assay type: in vivo; settings: 1.6 g/a, 3 weeks after treatment
# Outline: as §5
# [25] = system: Avena fatua; assay: Herbicidal effect test by soil treatment; assay type: in vivo; settings: 1.6 g/a, 3 weeks after treatment
# Outline: as §5
# [26] = system: Polygonum blumei; assay: Herbicidal effect test by soil treatment; assay type: in vivo; settings: 1.6 g/a, 3 weeks after treatment
# Outline: as §5
# [27] = system: Setaria viridis; assay: Herbicidal effect test by soil treatment; assay type: in vivo; settings: 1.6 g/a, 3 weeks after treatment
# Outline: as §5
# [28] = system: direct sown rice; assay: Herbicidal effect test by foliage treatment; assay type: in vivo, Oryza sativa; settings: 1.6 g/a; foliage treatment after growth of 14 days; 3 weeks after treatment
# Outline: as §1
structure (smiles),measurement,setting,value
"COc1cc(OC)nc(NC(=O)NS(=O)(=O)c2c(C3=NOCC(C)O3)c(Cl)nn2C)n1 (stereo not shown) [Compound 1, N-((4,6-dimethoxypyrimidin-2-yl)aminocarbonyl)-3-chloro-1-methyl-4-(5-methyl-5H,6H-1,4,2-dioxadin-3-yl)pyrazole-5-sulfonamide]","herbicidal effect, A: Echinochloa crus-galli",[1],5 (Herbicidal rate 90% or more (almost complete death))
same,"herbicidal effect, C: Monochoria vaginalis",[2],5 (Herbicidal rate 90% or more (almost complete death))
same,"herbicidal effect, A: Echinochloa crus-galli",[3],5 (Herbicidal rate 90% or more (almost complete death))
same,"herbicidal effect, B: Scirpus juncoides",[4],5 (Herbicidal rate 90% or more (almost complete death))
same,"herbicidal effect, g: rice transplanted at a depth of 0 cm",[5],0 (Herbicidal rate 5% or less (little effect))
same,"herbicidal effect, d: direct sown rice",[6],2 (Herbicidal rate 20% or more and less than 40%)
same,"herbicidal effect, C: Monochoria vaginalis",[7],5 (Herbicidal rate 90% or more (almost complete death))
same,"herbicidal effect, A: Echinochloa crus-galli",[8],5 (Herbicidal rate 90% or more (almost complete death))
same,"herbicidal effect, a: transplanted rice (Oryza sativa)",[9],0 (Herbicidal rate 5% or less (little effect))
same,"herbicidal effect, B: Scirpus juncoides",[10],5 (Herbicidal rate 90% or more (almost complete death))
same,"herbicidal effect, N: Rotala indica",[11],5 (Herbicidal rate 90% or more (almost complete death))
same,"herbicidal effect, O: Lindernia pyxidaria",[12],5 (Herbicidal rate 90% or more (almost complete death))
same,"herbicidal effect, A: Echinochloa crus-galli",[13],2 (Herbicidal rate 20% or more and less than 40%)
same,"herbicidal effect, e: Triticum aestivum (wheat)",[14],5 (Herbicidal rate 90% or more (almost complete death))
same,"herbicidal effect, J: Amaranthus retroflexus",[15],5 (Herbicidal rate 90% or more (almost complete death))
same,"herbicidal effect, D: Digitaria adscendes",[16],4 (Herbicidal rate 70% or more and less than 90%)
same,"herbicidal effect, K: Chenopodium album",[17],5 (Herbicidal rate 90% or more (almost complete death))
same,"herbicidal effect, c: soybean (Glycine max)",[18],5 (Herbicidal rate 90% or more (almost complete death))
same,"herbicidal effect, f: Beta vulgaris (beet)",[19],5 (Herbicidal rate 90% or more (almost complete death))
same,"herbicidal effect, I: Ambrosia elatior",[20],5 (Herbicidal rate 90% or more (almost complete death))
same,"herbicidal effect, H: Abutilon avicennae",[21],4 (Herbicidal rate 70% or more and less than 90%)
same,"herbicidal effect, G: Black-grass",[22],4 (Herbicidal rate 70% or more and less than 90%)
same,"herbicidal effect, b: corn (Zea mays)",[23],5 (Herbicidal rate 90% or more (almost complete death))
same,"herbicidal effect, M: Stellaria media",[24],5 (Herbicidal rate 90% or more (almost complete death))
same,"herbicidal effect, F: Avena fatua",[25],0 (Herbicidal rate 5% or less (little effect))
same,"herbicidal effect, L: Polygonum blumei",[26],5 (Herbicidal rate 90% or more (almost complete death))
same,"herbicidal effect, E: Setaria viridis",[27],1 (Herbicidal rate 5% or more and less than 20%)
same,"herbicidal effect, d: direct sown rice",[28],0 (Herbicidal rate 5% or less (little effect))
